# Test results from patent publication US20140142180A1, “METHODS OF TREATING TUMORS HAVING ELEVATED MCT1 EXPRESSION” (Whitehead Institute for Biomedical Research, priority 2012, published 2014).
# Experiments:
# parental KBM7 cells = assay: Luciferase-based ATP assay, parental KBM7 cells; assay type: cell-based, human; details: 30 min treatment
# Protocol: The bioenergetic profiles of KBM7 and MDA-MB-231 cells in response to 3-BrPA were determined using a Seahorse Bioscience XF24 Extracellular Flux Analyzer (Seahorse Bioscience). For the indicated experiments, 250,000 KBM7 or 40,000 MDA-MB-231 cells seeded in Seahorse tissue culture plates using unbuffered RPMI (10 mM Glucose). KBM7 cells were attached to the plates using CellTak (Clontech) one hour prior to the start of the experiment. For AUC (area under the curve) OCR and ECAR measurements, three consecutive readings were performed for each cell line. For experiments where 3-BrPA is used, after 3 consecutive readings, 50 μM 3-BrPA was injected through port A and ECAR and OCAR levels were measured. Lactate production was measured as described previously^50. For ATP assays, 20,000 cells were seeded and treated for 30 min with indicated amounts of 3-BrPA and ATP levels were determined using a luciferase-based assay (Promega). For metabolite measurements, 10 million wild type and MCT1 null KBM7 cells were cultured for 1 hour in presence of 50 μM 3-BrPA before metabolite extraction. Then, cells were rapidly washed three times with cold PBS, and then metabolites were extracted by addition of 80% ice-cold methanol followed after incubation on dry ice for 15 min. Endogenous metabolite profiles were obtained using LC-MS as described^51. Metabolite levels (n=3) were normalized to cell number.
# HCC-70 cells = assay: Cell survival assay, HCC-70; assay type: cell-based, human; details: HCC-70, increased MCT1 level
# Protocol: (§1) Cell lines (5,000-20,000) were seeded in 96-well plates and treated with indicated amounts of 3-BrPA. After 3 days of treatment, CellTiter-Glo (Promega) and/or CyQuant (Invitrogen) were used to measure survival percentage for each concentration compared to untreated cells. FACS analysis with Annexin V and 7AAD staining was performed according to manufacturer's manual (BD Pharmingen).
# (§2) 15 cell lines (BT-474, BT-549, CAK1-1, CAL-51, HCC-70, HS578T, JURKAT, MDA-MB-157, MDA-MB-231, MDA-MB-453, MDA-MB-468, PC-3, SK-BR-3, T47D, ZR-75-1) were treated with 3-BrPA (0-300 μM). After 3 days, cell viability was quantified via CellTiter-Glo assay and an IC50 from the resulting dose-response curve was interpolated using a nonlinear regression model. Transcriptome-wide normalized mRNA levels from gene expression profiling experiments performed on the Affymetrix Human Genome U133 Plus 2.0 chip were obtained from the CCLE for all 15 cell lines. The mRNA expression pattern across all 15 samples for each of the genes was then correlated with the IC50 values. Similar correlation analysis was performed using OCR/ECAR values for each cell line.
# MDA-MB-231 cells [1] = assay: 14C-3-BrPA uptake, parental and MCT1-overexpressing MDA-MB-231 cells; assay type: cell-based, human; details: MCT1-overexpressing vs parental MDA-MB-231
# MCT1-null KBM7 cells = assay: Cell survival assay, MCT1-null KBM7 clones; assay type: cell-based, human
# Protocol: A haploid cell genetic screen with 3-BrPA was performed using 100 million mutagenized KBM7 cells as described previously^29. Mutagenized haploid KBM-7 cells were exposed to 50 μM 3-BrPA for 3 weeks. Surviving clones were harvested and genomic DNA was isolated and insertions were amplified. The sequences flanking retroviral insertion sites were mapped to the human genome using inverse PCR followed by Ilium in a sequencing. Genomic regions with a high density of insertions were identified using the proximity index for a given insertion. Additionally, the statistical enrichment of insertions at a given locus in the selected population was calculated by comparing the number of inactivating insertions to those in the untreated control dataset via a Fisher's Exact Test. Individual clones were isolated among 50 different clones and genomic DNA for individually selected clones were isolated using a genomic DNA isolation kit (Qiagen). Genomic insertions were identified by inverse PCR and subsequent sequencing as described previously^24.
# Cell lines (5,000-20,000) were seeded in 96-well plates and treated with indicated amounts of 3-BrPA. After 3 days of treatment, CellTiter-Glo (Promega) and/or CyQuant (Invitrogen) were used to measure survival percentage for each concentration compared to untreated cells. […]
# BT-549 cells = assay: Cell survival assay, BT-549; assay type: cell-based, human
# Protocol: as §1, §2
# MCT1-null cells = assay: 14C-3-BrPA uptake assay, MCT1-null KBM7 cells; assay type: cell-based, human; details: MCT1-null compared to parental KBM7 cells
# Protocol: (§3) Wild type KBM7 or MCT1-null cells were seeded in HBSS and exposed for up to 20 minutes to 100 μM ^14C-labeled 3-BrPA (6.8 mCi/mmole) (Moravek) with or without competitor molecules like 3-BrPA, Pyruvate, L-Lactate and D-Lactate. Cells were washed with cold HBSS, lysed in a NaOH buffer, and uptake measured using a liquid scintillation counter.
# MCT1 = molecular target: T1, MCT1 (Homo sapiens, UniProt P53985); assay: 14C-3-BrPA uptake assay, wild type KBM7 cells; assay type: cell-based
# T1 construct: endogenous in cells; host or cells: wild type KBM7 cells (near-haploid human cell line)
# T1 sequence (P53985 1-500): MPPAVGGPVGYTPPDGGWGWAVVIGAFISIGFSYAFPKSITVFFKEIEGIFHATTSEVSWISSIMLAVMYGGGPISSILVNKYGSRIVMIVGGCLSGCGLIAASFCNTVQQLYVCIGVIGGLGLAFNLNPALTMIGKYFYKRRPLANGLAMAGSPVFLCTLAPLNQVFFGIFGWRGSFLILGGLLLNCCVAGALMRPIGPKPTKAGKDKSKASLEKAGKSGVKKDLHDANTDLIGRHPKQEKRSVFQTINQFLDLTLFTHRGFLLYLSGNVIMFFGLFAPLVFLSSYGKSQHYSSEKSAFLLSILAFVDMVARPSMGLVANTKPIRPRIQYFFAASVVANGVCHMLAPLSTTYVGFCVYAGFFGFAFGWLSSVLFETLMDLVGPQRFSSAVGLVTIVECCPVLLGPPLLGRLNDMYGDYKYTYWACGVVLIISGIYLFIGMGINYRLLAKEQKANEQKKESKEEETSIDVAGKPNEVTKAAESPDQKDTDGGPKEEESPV
# T1 sequence (P35613 140-385 partner limits assumed): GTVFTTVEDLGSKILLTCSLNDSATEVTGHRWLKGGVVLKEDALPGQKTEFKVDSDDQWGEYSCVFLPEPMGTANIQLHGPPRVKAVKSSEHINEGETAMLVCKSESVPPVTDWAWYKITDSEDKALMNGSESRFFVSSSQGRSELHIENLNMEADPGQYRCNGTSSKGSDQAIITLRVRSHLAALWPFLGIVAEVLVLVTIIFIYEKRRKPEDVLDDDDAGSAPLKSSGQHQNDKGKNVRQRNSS
# Protocol: as §3
# MDA-MB-231 cells [2] = assay: Cell survival assay, MDA-MB-231; assay type: cell-based, human
# Protocol: as §1, §2
# [3] = test system: AMPK and ACC phosphorylation; assay: Immunoblot of AMPK and ACC phosphorylation, wild type KBM7 cells; assay type: cell-based, human; details: 50 μM 3-BrPA
smiles,measurement,setting,value
"O=C(O)C(=O)CBr [3-BrPA, 3-bromopyruvic acid]",total ATP levels,parental KBM7 cells,substantial decrease
same,sensitivity to 3-BrPA,HCC-70 cells,sensitive
same,14C-3-BrPA uptake with MCT1 expression,MDA-MB-231 cells [1],enhance
same,sensitivity to 3-BrPA after re-expression of MCT1,MCT1-null KBM7 cells; MCT1-null KBM7 cells with exogenous MCT1,nearly completely restored their sensitivity
same,resistance to 3-BrPA,"MCT1-null KBM7 cells; MCT1-null KBM7 clones (Clone A and B), 50 μM, 3 days",completely resistant
same,sensitivity to 3-BrPA,"BT-549 cells; BT-549, increased MCT1 level",sensitive
same,sensitivity to 3-BrPA with suppression of GAPDH expression by RNAi,BT-549 cells; BT-549 expressing shRNA targeted to GAPDH vs GFP control,markedly increased the sensitivity
same,sensitivity to 3-BrPA with partial suppression of MCT1 by RNAi,BT-549 cells; BT-549 expressing shRNAs targeting MCT1,sufficient to confer resistance
same,uptake of 14C-labeled 3-BrPA,MCT1-null cells,did not take up
same,3-BrPA uptake on reduction in extracellular pH,"MCT1; wild type KBM7, radiolabeled 3-BrPA, 20 minutes",enhanced
same,competition with the uptake of radiolabeled 3-BrPA,"MCT1; wild type KBM7 in HBSS, up to 20 minutes, unlabeled competitor",effectively competed
same,sensitivity to 3-BrPA,"MDA-MB-231 cells [2]; MDA-MB-231, low MCT1 level",resistant
same,sensitivity to 3-BrPA with stable expression of MCT1,MDA-MB-231 cells [2]; MDA-MB-231 stably expressing MCT1 cDNA,sufficient to sensitize
same,"AMPK and ACC phosphorylation, markers of energy stress",[3],robustly increasing
